Data taken from ChEMBL document CHEMBL3885861, “Open TG-GATES”.

Species on record: Rattus norvegicus
Experiment: Open TG-GATES - Regimen: Daily Repeat
Format: toxicity, organism-based, Sprague-Dawley
Design: regimen Daily Repeat, gender Male, age 6 weeks
Conditions: in vivo, po, 0 mg/kg, route gavage, dose level Control; for APTT / Bas / Eos / Fbg / Hb / Ht / Lym / MCH / MCHC / MCV / Mono / Neu / PT / Plat / RBC / Ret / WBC: tissue Blood; for KIDNEY_L / KIDNEY_R / KIDNEY_TOTAL: tissue Kidney; for LIVER: tissue Liver; for A/G / ALP / ALT / AST / BUN / CRE / Ca / Cl / DBIL / GLC / IP / K / LDH / Na / PL / RALB / TBIL / TC / TG / TP / gamma-GTP: tissue Plasma

`Cc1cccc(Nc2ccccc2C(=O)O)c1C` [MEFENAMIC ACID] was tested, and the TERMINAL_BW (72 h, time 3 day) was 233.8 g, the APTT (72 h, time 3 day) was 19.9 s and the Bas (72 h, time 3 day) was 0%. The Eos (72 h, time 3 day) was 0.8%, the Fbg (72 h, time 3 day) was 223.4 mg/dL and the Hb (72 h, time 3 day) was 13.4 g/dL. The Ht (72 h, time 3 day) was 38.3%, the Lym (72 h, time 3 day) was 76% and the MCH (72 h, time 3 day) was 21.9 pg. For the same compound, the MCHC (72 h, time 3 day) was 35.1%, the MCV (72 h, time 3 day) was 62.4 fL and the Mono (72 h, time 3 day) was 2.6%. The Neu (72 h, time 3 day) was 18.2%, the PT (72 h, time 3 day) was 11.9 s and the Plat (72 h, time 3 day) was 118.8 x10_4/uL. The RBC (72 h, time 3 day) was 614 x10_4/ul, the Ret (72 h, time 3 day) was 5.7% and the WBC (72 h, time 3 day) was 105.7 x10_2/uL. For the same compound, the KIDNEY_L (72 h, time 3 day) was 1 g, the KIDNEY_R (72 h, time 3 day) was 1 g and the KIDNEY_TOTAL (72 h, time 3 day) was 2 g. The LIVER (72 h, time 3 day) was 11.2 g, the A/G (72 h, time 3 day) was 1.6 and the ALP (72 h, time 3 day) was 1029.8 IU/L. The ALT (72 h, time 3 day) was 35.4 IU/L, the AST (72 h, time 3 day) was 64.2 IU/L and the BUN (72 h, time 3 day) was 14.4 mg/dL. It also gave a CRE (72 h, time 3 day) of 0.4 mg/dL, a Ca (72 h, time 3 day) of 11 mg/dL and a Cl (72 h, time 3 day) of 103.2 meq/L. For the same compound, the DBIL (72 h, time 3 day) was 0.088 mg/dL, the GLC (72 h, time 3 day) was 193.2 mg/dL and the IP (72 h, time 3 day) was 7.6 mg/dL. It also gave a K (72 h, time 3 day) of 4.2 meq/L, an LDH (72 h, time 3 day) of 173 IU/L and a Na (72 h, time 3 day) of 141 meq/L. For the same compound, the PL (72 h, time 3 day) was 143.6 mg/dL, the RALB (72 h, time 3 day) was 3.5 g/dL and the TBIL (72 h, time 3 day) was 0.1 mg/dL. It also gave a TC (72 h, time 3 day) of 70.6 mg/dL, a TG (72 h, time 3 day) of 87.4 mg/dL and a TP (72 h, time 3 day) of 5.6 g/dL. The gamma-GTP (72 h, time 3 day) was 1 IU/L, the TERMINAL_BW ([…], time 7 day) was 261.7 g and the TERMINAL_BW ([…], time 14 day) was 316.1 g. The TERMINAL_BW ([…], time 28 day) was 409.8 g, the APTT ([…], time 7 day) was 18.5 s and the Bas ([…], time 7 day) was 0%. The Eos ([…], time 7 day) was 0.8%, the Fbg ([…], time 7 day) was 219.2 mg/dL and the Hb ([…], time 7 day) was 13.8 g/dL. The Ht ([…], time 7 day) was 39.1%, the Lym ([…], time 7 day) was 81.4% and the MCH ([…], time 7 day) was 21.3 pg. For the same compound, the MCHC ([…], time 7 day) was 35.5%, the MCV ([…], time 7 day) was 60.1 fL and the Mono ([…], time 7 day) was 2.8%. For the same compound, the Neu ([…], time 7 day) was 13.4%, the PT ([…], time 7 day) was 11.7 s and the Plat ([…], time 7 day) was 121.6 x10_4/uL. It also gave an RBC ([…], time 7 day) of 650.6 x10_4/ul, a Ret ([…], time 7 day) of 4.7% and a WBC ([…], time 7 day) of 105 x10_2/uL. For the same compound, the APTT ([…], time 14 day) was 20.6 s, the Bas ([…], time 14 day) was 0% and the Eos ([…], time 14 day) was 1%. For the same compound, the Fbg ([…], time 14 day) was 228.8 mg/dL, the Hb ([…], time 14 day) was 14.3 g/dL and the Ht ([…], time 14 day) was 40.5%. For the same compound, the Lym ([…], time 14 day) was 76.4%, the MCH ([…], time 14 day) was 21.4 pg and the MCHC ([…], time 14 day) was 35.2%. It also gave an MCV ([…], time 14 day) of 60.8 fL, a Mono ([…], time 14 day) of 2.2% and a Neu ([…], time 14 day) of 18.6%. For the same compound, the PT ([…], time 14 day) was 12.1 s, the Plat ([…], time 14 day) was 108.8 x10_4/uL and the RBC ([…], time 14 day) was 667.4 x10_4/ul. The Ret ([…], time 14 day) was 4.2%, the WBC ([…], time 14 day) was 111.1 x10_2/uL and the APTT ([…], time 28 day) was 19.1 s. It also gave a Bas ([…], time 28 day) of 0%, an Eos ([…], time 28 day) of 1% and a Fbg ([…], time 28 day) of 249 mg/dL. For the same compound, the Hb ([…], time 28 day) was 15.3 g/dL, the Ht ([…], time 28 day) was 43.8% and the Lym ([…], time 28 day) was 81.4%. For the same compound, the MCH ([…], time 28 day) was 20.1 pg, the MCHC ([…], time 28 day) was 35% and the MCV ([…], time 28 day) was 57.4 fL. It also gave a Mono ([…], time 28 day) of 2%, a Neu ([…], time 28 day) of 14.4% and a PT ([…], time 28 day) of 11.8 s. It also gave a Plat ([…], time 28 day) of 111.8 x10_4/uL, an RBC ([…], time 28 day) of 763.4 x10_4/ul and a Ret ([…], time 28 day) of 2.7%. It also gave a WBC ([…], time 28 day) of 91.7 x10_2/uL, a KIDNEY_L ([…], time 7 day) of 1.1 g and a KIDNEY_R ([…], time 7 day) of 1.1 g. The KIDNEY_TOTAL ([…], time 7 day) was 2.2 g, the KIDNEY_L ([…], time 14 day) was 1.2 g and the KIDNEY_R ([…], time 14 day) was 1.2 g. It also gave a KIDNEY_TOTAL ([…], time 14 day) of 2.4 g, a KIDNEY_L ([…], time 28 day) of 1.4 g and a KIDNEY_R ([…], time 28 day) of 1.4 g. It also gave a KIDNEY_TOTAL ([…], time 28 day) of 2.9 g, an LIVER ([…], time 7 day) of 11.4 g and an LIVER ([…], time 14 day) of 13.7 g. For the same compound, the LIVER ([…], time 28 day) was 17.3 g, the A/G ([…], time 7 day) was 1.5 and the ALP ([…], time 7 day) was 908 IU/L. It also gave an ALT ([…], time 7 day) of 38.8 IU/L, an AST ([…], time 7 day) of 69.4 IU/L and a BUN ([…], time 7 day) of 14.8 mg/dL. It also gave a CRE ([…], time 7 day) of 0.4 mg/dL, a Ca ([…], time 7 day) of 10.6 mg/dL and a Cl ([…], time 7 day) of 103.4 meq/L. It also gave a DBIL ([…], time 7 day) of 0.07 mg/dL, a GLC ([…], time 7 day) of 229.4 mg/dL and an IP ([…], time 7 day) of 6.9 mg/dL. The K ([…], time 7 day) was 3.8 meq/L, the LDH ([…], time 7 day) was 181 IU/L and the Na ([…], time 7 day) was 140.4 meq/L. For the same compound, the PL ([…], time 7 day) was 135.4 mg/dL, the RALB ([…], time 7 day) was 3.3 g/dL and the TBIL ([…], time 7 day) was 0.1 mg/dL. The TC ([…], time 7 day) was 71 mg/dL, the TG ([…], time 7 day) was 68.2 mg/dL and the TP ([…], time 7 day) was 5.6 g/dL. It also gave a gamma-GTP ([…], time 7 day) of 1 IU/L, an A/G ([…], time 14 day) of 1.5 and an ALP ([…], time 14 day) of 880 IU/L. The ALT ([…], time 14 day) was 31 IU/L, the AST ([…], time 14 day) was 58.8 IU/L and the BUN ([…], time 14 day) was 16 mg/dL. It also gave a CRE ([…], time 14 day) of 0.5 mg/dL, a Ca ([…], time 14 day) of 10.5 mg/dL and a Cl ([…], time 14 day) of 103 meq/L. It also gave a DBIL ([…], time 14 day) of 0.092 mg/dL, a GLC ([…], time 14 day) of 233.6 mg/dL and an IP ([…], time 14 day) of 7.1 mg/dL. It also gave a K ([…], time 14 day) of 3.9 meq/L, an LDH ([…], time 14 day) of 154.4 IU/L and a Na ([…], time 14 day) of 140.6 meq/L. The PL ([…], time 14 day) was 142.8 mg/dL, the RALB ([…], time 14 day) was 3.4 g/dL and the TBIL ([…], time 14 day) was 0.2 mg/dL. For the same compound, the TC ([…], time 14 day) was 73.4 mg/dL, the TG ([…], time 14 day) was 101.4 mg/dL and the TP ([…], time 14 day) was 5.6 g/dL. For the same compound, the gamma-GTP ([…], time 14 day) was 0.8 IU/L, the A/G ([…], time 28 day) was 1.3 and the ALP ([…], time 28 day) was 665 IU/L. The ALT ([…], time 28 day) was 33.4 IU/L, the AST ([…], time 28 day) was 56.6 IU/L and the BUN ([…], time 28 day) was 18.8 mg/dL. For the same compound, the CRE ([…], time 28 day) was 0.5 mg/dL, the Ca ([…], time 28 day) was 10.6 mg/dL and the Cl ([…], time 28 day) was 103.4 meq/L. The DBIL ([…], time 28 day) was 0.1 mg/dL, the GLC ([…], time 28 day) was 242.8 mg/dL and the IP ([…], time 28 day) was 7 mg/dL. The K ([…], time 28 day) was 3.8 meq/L, the LDH ([…], time 28 day) was 111.2 IU/L and the Na ([…], time 28 day) was 140.6 meq/L. The PL ([…], time 28 day) was 151.8 mg/dL, the RALB ([…], time 28 day) was 3.6 g/dL and the TBIL ([…], time 28 day) was 0.2 mg/dL. The TC ([…], time 28 day) was 74.2 mg/dL, the TG ([…], time 28 day) was 141.4 mg/dL and the TP ([…], time 28 day) was 6.2 g/dL. For the same compound, the gamma-GTP ([…], time 28 day) was 1.6 IU/L.
